Here are results for 20 compounds from patent US9227971B2, “Pyrazolo[1,5-a]pyrimidine compounds as mTOR inhibitors” (Merck Sharp & Dohme Corp., priority 2010, dated 2016).

Read-outs that look alike come from different tables or passages of the source.

The test system of test [1] is phosphorylated 4E-BP1 Thr37/46 (p4E-BP1 Thr37/46), mTORC1 activity, PC3 cells. Put plainly: mTOR target engagement assay, immunofluorescent cell-based, p4E-BP1 Thr37/46 readout (mTORC1 activity). Conditions: Homo sapiens, read-out: p4E-BP1 Thr37/46 IC50. The procedure, abridged:
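Cell-based immunofluorescence in PC3 cells: serially diluted compounds (0.25% DMSO, 5% FBS) applied for ninety minutes at 37° C before fixation and overnight 4° C staining of p4E-BP1 Thr37/46. Untreated DMSO wells set maximal phosphorylation; IC50 obtained by logistic fitting.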

The test system of test [2] is phosphorylated AKT Ser473 (pAKT S473), mTORC2 activity, PC3 cells. Briefly: mTOR target engagement assay, immunofluorescent cell-based, pAKT S473 readout (mTORC2 activity). Conditions: Homo sapiens. The method in brief: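 After blocking, cells were stained overnight at 4 °C with anti-pAKT S473 antibody, then a fluorescent secondary; inhibition was read as reduced fluorescence intensity.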

[3] abbreviates: PC-3, PC3 cells, compound treatment ninety minutes at 37° C.

Take `CC(C)(O)c1ncc(-c2cnn3c(N)c(S(C)(=O)=O)c([C@@H]4C[C@H]5CC[C@@H](C4)N5C(=O)c4nnc[nH]4)nc23)cc1Cl` [Compound 3.158, ((1R,3s,5S)-3-(7-amino-3-(5-chloro-6-(2-hydroxypropan-2-yl)pyridin-3-yl)-6-(methylsulfonyl)pyrazolo[1,5-a]pyrimidin-5-yl)-8-azabicyclo[3.2.1]octan-8-yl)(4H-1,2,4-triazol-3-yl)methanone]: the IC50 in test [1] (PC-3, Table 3-1, PC3 cells) was 1 to 100 nM; in test [2] (PC-3, Table 3-1, PC3 cells), 1 to 100 nM.

For the compound `CC(=O)c1c([C@@H]2C[C@H]3CC[C@@H](C2)N3C(=O)CO)nc2c(-c3ccc(-c4ncn(C)n4)nc3)cnn2c1N` [Compound 1.1.89, 1-((1R,3s,5S)-3-(6-acetyl-7-amino-3-(6-(1-methyl-1H-1,2,4-triazol-3-yl)pyridin-3-yl)pyrazolo[1,5-a]pyrimidin-5-yl)-8-azabicyclo[3.2.1]octan-8-yl)-2-hydroxyethanone], the IC50 in test [1] (setting [3]) and in test [2] (setting [3]) was 100 to 1000 nM each time.

As to `CS(=O)(=O)c1c([C@@H]2C[C@H]3CC[C@@H](C2)N3C(=O)CO)nc2c(-c3ccc(-c4ccccc4F)nc3)cnn2c1N` [Compound 3.132, 1-((1R,3a,5S)-3-(7-amino-3-(6-(2-fluorophenyl)pyridin-3-yl)-6-(methylsulfonyl)pyrazolo[1,5-a]pyrimidin-5-yl)-8-azabicyclo[3.2.1]octan-8-yl)-2-hydroxyethanone], the IC50 was 100 to 1000 nM in test [1] (PC-3, Table 3-1, PC3 cells) and 1 to 100 nM in test [2] (PC-3, Table 3-1, PC3 cells).

With `CS(=O)(=O)c1c([C@@H]2C[C@H]3CC[C@@H](C2)N3)nc2c(-c3ccc(-c4ccccc4)nc3)cnn2c1N` [Compound 3.202, 5-((1R,3s,5S)-8-azabicyclo[3.2.1]octan-3-yl)-6-(methylsulfonyl)-3-(6-phenylpyridin-3-yl)pyrazolo[1,5-a]pyrimidin-7-amine], the IC50 in test [1] (PC-3, Table 3-1, PC3 cells) lay within 1000 to 10000 nM; in test [2] (PC-3, Table 3-1, PC3 cells) it was 1000 to 10000 nM.

Regarding `COc1ccc(-c2ccc(-c3cnn4c(N)c(C(C)=O)c([C@@H]5C[C@H]6CC[C@@H](C5)N6C(=O)c5nnc[nH]5)nc34)cn2)c(F)c1F` [Compound 1.1.65, 1-(5-((1R,3s,5S)-8-(4H-1,2,4-triazole-3-carbonyl)-8-azabicyclo[3.2.1]octan-3-yl)-7-amino-3-(6-(2,3-difluoro-4-methoxyphenyl)pyridin-3-yl)pyrazolo[1,5-a]pyrimidin-6-yl)ethanone], the IC50 in test [1] (setting [3]) and in test [2] (setting [3]) was 1 to 100 nM in each case.

As for `CC(=O)c1c([C@@H]2C[C@H]3CC[C@@H](C2)N3C(=O)c2nnc[nH]2)nc2c(-c3ccc(N4NCCC4=O)nc3)cnn2c1N` [Compound 8.19, 2-(5-(5-((1R,3s,5S)-8-(4H-1,2,4-triazole-3-carbonyl)-8-azabicyclo[3.2.1]octan-3-yl)-6-acetyl-7-aminopyrazolo[1,5-a]pyrimidin-3-yl)pyridin-2-yl)pyrazolidin-3-one], the IC50 in test [1] (PC-3, PC3 cells) was in the range of 100 to 1000 nM; in test [2] (PC-3, PC3 cells), 100 to 1000 nM.

`CS(=O)(=O)c1c([C@@H]2C[C@H]3CC[C@@H](C2)N3C(=O)C(O)C(F)(F)F)nc2c(-c3ccc(-c4ccccc4)nc3)cnn2c1N` (stereo partly drawn) [Compound 3.15, 1-((1R,3s,5S)-3-(7-amino-6-(methylsulfonyl)-3-(6-phenylpyridin-3-yl)pyrazolo[1,5-a]pyrimidin-5-yl)-8-azabicyclo[3.2.1]octan-8-yl)-3,3,3-trifluoro-2-hydroxypropan-1-one]: the IC50 fell in the range of 1000 to 10000 nM in test [1] (PC-3, Table 3-1, PC3 cells) and 1000 to 10000 nM in test [2] (PC-3, Table 3-1, PC3 cells).

Regarding `Nc1c(C2CC2)c([C@H]2CC3CC[C@H](C2)N3C(=O)c2nnc[nH]2)nc2c(-c3cnc4c(c3)CCC4O)cnn12` (stereo partly drawn) [Compound 7.61, ((1R,3s,5S)-3-(7-amino-6-cyclopropyl-3-(7-hydroxy-6,7-dihydro-5H-cyclopenta[b]pyridin-3-yl)pyrazolo[1,5-a]pyrimidin-5-yl)-8-azabicyclo[3.2.1]octan-8-yl)(4H-1,2,4-triazol-3-yl)methanone], the IC50 in test [1] (PC-3, PC3 cells) was 1 to 100 nM; in test [2] (PC-3, PC3 cells) it was 1 to 100 nM.

Consider `Cc1n[nH]cc1C(=O)N1[C@@H]2CC[C@H]1C[C@H](c1nc3c(-c4ccc(-c5ccccc5)nc4)cnn3c(N)c1S(C)(=O)=O)C2` [Compound 3.80, ((1R,3s,5S)-3-(7-amino-6-(methylsulfonyl)-3-(6-phenylpyridin-3-yl)pyrazolo[1,5-a]pyrimidin-5-yl)-8-azabicyclo[3.2.1]octan-8-yl)(3-methyl-1H-pyrazol-4-yl)methanone], for which the IC50 in test [1] (PC-3, Table 3-1, PC3 cells) fell in the range of 1 to 100 nM; in test [2] (PC-3, Table 3-1, PC3 cells) it was 1 to 100 nM.

As for `Cc1nc(-c2ccc(-c3cnn4c(N)c(S(C)(=O)=O)c([C@@H]5C[C@H]6CC[C@@H](C5)N6C(=O)c5nnc[nH]5)nc34)cn2)sc1C` [Compound 3.196, ((1R,3s,5S)-3-(7-amino-3-(6-(4,5-dimethylthiazol-2-yl)pyridin-3-yl)-6-(methylsulfonyl)pyrazolo[1,5-a]pyrimidin-5-yl)-8-azabicyclo[3.2.1]octan-8-yl)(4H-1,2,4-triazol-3-yl)methanone], the IC50 in test [1] (PC-3, Table 3-1, PC3 cells) lay within 100 to 1000 nM; in test [2] (PC-3, Table 3-1, PC3 cells) it was 100 to 1000 nM.

On to `Nc1c(C2CC2)c([C@@H]2C[C@H]3CC[C@@H](C2)N3C(=O)NCCO)nc2c(-c3ccc(-c4ccccc4)nc3)cnn12` [Compound 4.8, (1R,3s,5S)-3-(7-amino-6-cyclopropyl-3-(6-phenylpyridin-3-yl)pyrazolo[1,5-a]pyrimidin-5-yl)-N-(2-hydroxyethyl)-8-azabicyclo[3.2.1]octane-8-carboxamide], for which the IC50 in test [1] (setting [3]) lay within 100 to 1000 nM; in test [2] (setting [3]), 1 to 100 nM.

As to `CCNC(=O)N1[C@@H]2CC[C@H]1C[C@H](c1nc3c(-c4ccc(-c5ccccc5)nc4)cnn3c(N)c1C1CC1)C2` [Compound 4.5, (1R,3s,5S)-3-(7-amino-6-cyclopropyl-3-(6-phenylpyridin-3-yl)pyrazolo[1,5-a]pyrimidin-5-yl)-N-ethyl-8-azabicyclo[3.2.1]octane-8-carboxamide], the IC50 in test [1] (setting [3]) and in test [2] (setting [3]) was 100 to 1000 nM each time.

As to `CC(=O)c1c([C@@H]2C[C@H]3CC[C@@H](C2)N3C(=O)c2ncn[nH]2)nc2c(-c3ccc(C(C)(C)O)nc3)cnn2c1N` [Compound 7.5, 1-(5-((1R,3s,5S)-8-(1H-1,2,4-triazole-5-carbonyl)-8-azabicyclo[3.2.1]octan-3-yl)-7-amino-3-(6-(2-hydroxypropan-2-yl)pyridin-3-yl)pyrazolo[1,5-a]pyrimidin-6-yl)ethanone], the IC50 in test [1] (setting [3]) and in test [2] (setting [3]) was 1 to 100 nM in each case.

In the case of `Nc1cc([C@@H]2C[C@H]3CC[C@@H](C2)N3C(=O)[C@@H]2CCCN2)nc2c(-c3ccc(-c4ccccc4)nc3)cnn12` [Compound 2.20], the IC50 in test [1] (setting [3]) and in test [2] (setting [3]) was 1000 to 10000 nM throughout.

With `CS(=O)(=O)c1c([C@@H]2C[C@H]3CC[C@@H](C2)N3C(=O)c2nnc[nH]2)nc2c(-c3ccc(-c4nccs4)nc3)cnn2c1N` [Compound 3.24, ((1R,3s,5S)-3-(7-amino-6-(methylsulfonyl)-3-(6-(thiazol-2-yl)pyridin-3-yl)pyrazolo[1,5-a]pyrimidin-5-yl)-8-azabicyclo[3.2.1]octan-8-yl)(4H-1,2,4-triazol-3-yl)methanone], the IC50 fell in the range of 1 to 100 nM in test [1] (PC-3, Table 3-1, PC3 cells) and 1 to 100 nM in test [2] (PC-3, Table 3-1, PC3 cells).

With `CS(=O)(=O)c1c([C@@H]2C[C@H]3CC[C@@H](C2)N3C(=O)c2nnc[nH]2)nc2c(-c3ccc(CO)nc3)cnn2c1N` [Compound 7.35, ((1R,3s,5S)-3-(7-amino-3-(6-(hydroxymethyl)pyridin-3-yl)-6-(methylsulfonyl)pyra-zolo[1,5-a]pyrimidin-5-yl)-8-azabicyclo[3.2.1]octan-8-yl)(4H-1,2,4-triazol-3-yl)methanone], the IC50 in test [1] (PC-3, Table 7-5, PC3 cells) lay within 100 to 1000 nM; in test [2] (PC-3, Table 7-5, PC3 cells), 100 to 1000 nM.

Consider `CC(=O)c1c([C@@H]2C[C@H]3CC[C@@H](C2)N3C(=O)CO)nc2c(-c3ccc(-c4n[nH]c(C)c4F)nc3)cnn2c1N` [Compound 1.11..107, 1-((1R,3s,5S)-3-(6-acetyl-7-amino-3-(6-(4-fluoro-5-methyl-1H-pyrazol-3-yl)pyridin-3-yl)pyrazolo[1,5-a]pyrimidin-5-yl)-8-azabicyclo[3.2.1]octan-8-yl)-2-hydroxyethanone], for which the IC50 in test [1] (setting [3]) and in test [2] (setting [3]) was 100 to 1000 nM throughout.

For `CC(C)S(=O)(=O)c1c([C@@H]2C[C@H]3CC[C@@H](C2)N3C(=O)c2nnc[nH]2)nc2c(-c3ccc(-c4ccccc4)nc3)cnn2c1N` [Compound 3.163, ((1R,3s,5S)-3-(7-amino-6-(isopropylsulfonyl)-3-(6-phenylpyridin-3-yl)pyrazolo[1,5-a]pyrimidin-5-yl)-8-azabicyclo[3.2.1]octan-8-yl)(4H-1,2,4-triazol-3-yl)methanone], the IC50 in test [1] (PC-3, Table 3-1, PC3 cells) was in the range of 100 to 1000 nM; in test [2] (PC-3, Table 3-1, PC3 cells), 100 to 1000 nM.

Take `Cn1ccc(-c2ccc(-c3cnn4c(N)c(C5CC5)c([C@@H]5C[C@H]6CC[C@@H](C5)N6C(=O)CO)nc34)cn2)n1` [Compound 4.18, 1-((1R,3s,5S)-3-(7-amino-6-cyclopropyl-3-(6-(1-methyl-1H-pyrazol-3-yl)pyridin-3-yl)pyrazolo[1,5-a]pyrimidin-5-yl)-8-azabicyclo[3.2.1]octan-8-yl)-2-hydroxyethanone]: the IC50 in test [1] (setting [3]) and in test [2] (setting [3]) was 1 to 100 nM each time.

Take `CS(=O)(=O)c1c([C@@H]2C[C@H]3CC[C@@H](C2)N3C(=O)c2nnc[nH]2)nc2c(-c3cnc4ccc(F)cc4c3)cnn2c1N` [Compound 3.25]: the IC50 lay within 1 to 100 nM in test [1] (PC-3, Table 3-1, PC3 cells) and 1 to 100 nM in test [2] (PC-3, Table 3-1, PC3 cells).
